Data reported in patent US5179107A, “Antiviral quinolinone compounds” (Schering Corporation, priority 1991, dated 1993).
Several values for one entry are separate records, joined by “and”; a condition that tells them apart may be missing. Equal values may be shown once. Read-outs that look alike come from different tables or passages of the source.

Assays:
HSV-2 (strain MS) = assay: HSV-β-GAL assay: transient expression of beta galactosidase in pON 245^ori- transfected HeLa cells infected with HSV-2; type: cell-based; settings: multiple numbers = additional tests; for IC50: Human alphaherpesvirus 2, HeLa, 24 h
Procedure: (§1) HeLa and Vero cell cultures were maintained in Eagles Minimal Essential Medium which was supplemented with glutamine, penicillin, streptomycin and 10% fetal calf serum (10% EMEM). Stock cultures of HSV-2 (strain MS available from ATCC VR-540) were grown in and harvested from Vero cells. Viral stocks were titered in Vero cells according to established procedures.
Plasmid pON 245^ori- contains the promoter of the HSV-1 thymidine kinase (tk) gene located immediately 5' of the E. coli lac Z gene. In this arrangement, the tk promoter controls transcription from the bacterial gene in transient expression assays. Additionally, an SV40 polyadenylation signal is present at the 3' end of the lac Z gene to allow for the efficient translation of the mRNA in eucaryotic cells. The expression of beta galactosidase in a transient assay using pON 245^ori- is dependent upon superinfection of the transfected cells with HSV. […] For example, see U.S. application Ser. No. 07/435,491 filed Sep. 5, 1989, the disclosure of which is incorporated herein by reference thereto.
HeLa cells were seeded into 96 well microtiter plates and allowed to grow to 80% confluency (approximately 35000 cells/well). One half microgram of plasmid pON 245^ori- DNA was introduced into the cells of each well by the […] precipitation technique (Grahman and Van der Eb, 1973). Four to six hours later, the cells were rinsed with Hank's Balanced Salt Solution (HBSS), overlaid with 10% EMEM and incubated at 37° C. At 24 hrs post-transfection, cells were rinsed, overlaid with 10% EMEM again and re-incubated at 37° C. At 48 hrs. post-transfection, cells were rinsed and overlaid with either EMEM containing 2% fetal calf serum (2% EMEM), 2% EMEM containing HSV-2 (strain MS, Multiplicity of infection [moi]=5 pfu/cell) or 2% EMEM containing HSV-2 and the appropriate concentration of the compound to be tested. Twenty-four hrs later, the cells were harvested and assayed for beta galactosidase activity as described below.
(§2) All determinations of beta galactosidase activity were performed in 96 well microtiter plates. The intracellular level of beta galactosidase activity in each well was determined from cell lysates of the monolayer cultures. […] The generation of fluorescent product was quantified on a Microfluor microfluorimeter (Dynatech) after addition of 0.1M glycine, pH 10.3 (Spaete and Mocarski, 1985). The inhibitory activity of a compound was plotted versus the concentration and an IC50 value (the concentration of compound required to reduce beta glactosidase expression by 50%) was obtained for each compound tested.
The in-vitro anti-HSV activity of compounds of this invention is set forth in Table I. More than one number for a particular entry indicates the results for additional tests.

[1] = Cytotoxicity, ^3 H-LEU assay (HeLa cell translation); type: cell-based; settings: human, hela cells, inhibition of cellular translational activity, overnight/24 hrs incubation, read-out: CYTOTOXICITY ^3 H-LEU ASSAY IC50
Procedure: as §1
(§3) HeLa cells were treated with inhibitory compound for 24 hrs, after which levels of translational activity were assayed.
(§4) For assay of translational activity, HeLa cultures were grown to 80% confluency in 96 well microtiter plates, treated with appropriate concentrations of compound in 2% EMEM during an overnight incubation at 37° C., then rinsed with HBSS and overlaid with […] of 2% EMEM containing 8 uCi of tritiated leucine (^3 H-LEU, […], Amersham Corp., Arlington Heights Ill.). After a 1 hr incubation at 36.5° C., the cells were rinsed twice with phosphate buffered saline (PBS) and lysed in 400 ul/well of 1×PBS, 0.5% sodium dodecyl sulphate (SDS). After a 10 min incubation at 36.5° C., the contents of the well were transferred to a well in a Millititer HA microfiltration plate (Millipore Corp., Bedford, Mass.). The TCA insoluble proteins were precipitated onto the filter disc by a 10 min fixation with 5% TCA, followed by filtration under vacuum and three 10 minute rinses with 95% ethanol. The filters were dried at room temperature, cut from the milltitier plate and transferred to scintillation vials. TCA precipitable counts were assayed in 5 ml of Scintisol (Isolab, Akron, Ohio). The inhibitory activity of a compound was plotted versus the concentration and an IC50 value (that concentration of the compound required to decrease cellular translational activity by 50%) was derived for each compound.

CMV (strain Towne) = assay: CMV-β-Gal assay: transient expression of beta galactosidase, plasmid pON249 ΔNH3, in human foreskin fibroblasts; type: cell-based; settings: multiple numbers = additional tests; for ANTI-CMV ACTIVITY CMV-β-Gal ASSAY IC50: CMV strain Towne, human foreskin fibroblasts; for IC50: Human betaherpesvirus 5, Fibroblast, read-out: ANTI-CMV ACTIVITY CMV-β-Gal ASSAY IC50, CMV strain Towne, human foreskin fibroblasts
Procedure: as §2
The in-vitro CMV activity of the compounds represented by Formulas 1.1 and 1.3 were determined using the following CMV assay.
Human foreskin fibroblast (HHF) cell cultures were grown in 10% EMEM. CMV (strain Towne received from Stanford University) was grown and titered in HHF cells. Plasmids pON249 ΔNH3, containing CMV promoter genes, were used in the β-galactosidase transient expression assay as shown above.
More than one number for a particular entry indicates the results of additional tests.

[2] = CMV toxicity assay, ^3 H-LEU assay in HFF cells; type: cell-based; settings: human, read-out: CYTOTOXICITY ^3 H-LEU ASSAY IC50 (CMV toxicity assay)
HSV-2, strain MS = assay: Prophylactic guinea pig model of HSV infection (genital lesions, Maximum Lesion scores); type: in vivo; settings: subcutaneous, 60 mg per kg, every eight hours for 10 days, from 24 hrs prior to infection
Procedure: The in vivo assessment of anti-HSV efficacy was determined in the prophylactic guinea pig model of HSV infection described by Stansberry et al (1982). Dosing of guinea pigs was comprised of an initial treatment with test compound given 24 hrs prior to virus infection and subsequent administration of the compound every eight hours (T.I.D.) for a total of 10 days. Test compounds were administered subcutaneously in 0.5% buffered methyl cellulose at a dose of 60 mg per kg body weight of the animal. Animals were monitored daily for the developement of genital lesions and neurological symptomology, both of which were recorded and compared to the results obtained with parallel groups which received placebo or acyclovir treatment. Efficacy was evaluated for each compound by scoring the ability of the compound to ameliorate genital lesions produced by infection with HSV-2, strain MS, expressed as Maximum Lesion scores (MLS) on a scale of 1 (least lesions) to 4 (severe lesions).

HeLa cells = assay: Cytotoxicity, ^3 H-LEU assay (HeLa cell translation); type: cell-based; settings: inhibition of cellular translational activity, overnight/24 hrs incubation, 1440 min
Procedure: as §1, §3, §4

HSV [3] = settings: added to lidocaine or lidocaine hydrochloride; U.S. Pat. No. 4,757,088; cited from earlier work
HSV-1 = settings: U.S. Pat. No. 4,757,088; cited from earlier work
HSV-2 = settings: U.S. Pat. No. 4,757,088; cited from earlier work
herpes virus = settings: U.S. Pat. No. 4,757,088; cited from earlier work
HSV [4] = settings: U.S. Pat. No. 4,757,088; cited from earlier work
[5] = HSV-2 strain MS, moi 5 pfu/cell, HeLa cells, 24 hrs, read-out: ANTI-HSV ACTIVITY HSV-β-GAL ASSAY IC50

Row | Compound | CC50 at 24 h [1] | IC50 (HSV-2 (strain MS); [5]) | further results
1 | Cn1c(=O)c(O)c(O)c2ccccc21 [Formula 1.1] | 21 µg/mL |  | IC50 (HSV-2 (strain MS); read-out: ANTI-HSV ACTIVITY HSV-β-GAL ASSAY IC50, HSV-2 strain MS, moi 5 pfu/cell, HeLa cells, 24 hrs): < 3 µg/mL; ANTI-CMV ACTIVITY CMV-β-Gal ASSAY IC50 (CMV (strain Towne)): 1 µg/mL; IC50 (CMV (strain Towne)): 1.5 µg/mL; CC50 [2]: 36 µg/mL; In-vivo anti-HSV activity (HSV-2, strain MS): inactive
2 | O=c1c(O)c(O)c2ccccc2n1Cc1ccccc1 [Formula 1.2] | 32 µg/mL |  | 
3 | CCCCCCCn1c(=O)c(O)c(O)c2ccccc21 [Formula 1.3] | 37 µg/mL | < 3 µg/mL | ANTI-HSV ACTIVITY HSV-β-GAL ASSAY IC50 (HSV-2 (strain MS); HSV-2 strain MS, moi 5 pfu/cell, HeLa cells, 24 hrs): 2 µg/mL and 3 µg/mL; CYTOTOXICITY ^3 H-LEU ASSAY IC50 (HeLa cells): 30 µg/mL; ANTI-CMV ACTIVITY CMV-β-Gal ASSAY IC50 (CMV (strain Towne)): 9 µg/mL; IC50 (CMV (strain Towne)): 13 µg/mL; CC50 [2]: 25 µg/mL
4 | Cn1cccc1C(=O)Oc1c(OC(=O)c2cccn2C)c2ccccc2n(C)c1=O [Formula 1.4] | > 100 µg/mL |  | 
5 | Cn1c(=O)c(OC(=O)c2ccc[nH]2)c(OC(=O)c2ccc[nH]2)c2ccccc21 [Formula 1.5] | 28 µg/mL |  | 
6 | O=c1c(O)c(O)c2ccccc2n1-c1ccccc1 [Formula 1.6] | 8 µg/mL | 9 µg/mL | 
7 | Cn1c(=O)c(OC(=O)c2ccc(Br)o2)c(OC(=O)c2ccc(Br)o2)c2ccccc21 [Formula 1.7] | > 50 µg/mL | 10 µg/mL | 
8 | Cn1c(=O)c(OC(=O)c2cccs2)c(OC(=O)c2cccs2)c2ccccc21 [Formula 1.8] | > 50 µg/mL | 19 µg/mL | 
9 | Cn1c(=O)c(OC(=O)c2ccccc2)c(OC(=O)c2ccccc2)c2ccccc21 [Formula 1.9] | 58 µg/mL | 20 µg/mL | 
10 | CCC(=O)Oc1c(OC(=O)CC)c2ccccc2n(C)c1=O [Formula 1.10] | 34 µg/mL | 17 µg/mL | 
11 | COc1c(OC)c2ccccc2n(C)c1=O [Formula 1.11] | > 100 µg/mL | 25 µg/mL | 
12 | CC(C)(CO)[C@@H](O)C(=O)NCCCO [dexpanthenol] |  |  | effect of addition to lidocaine or lidocaine hydrochloride on their antiviral activity (HSV [3]): significantly enhances the antiviral activity
13 | CCN(CC)CC(=O)Nc1c(C)cccc1C [lidocaine, 2-(diethylamino)-N-(2,6-dimethylphenyl)acetamide] |  |  | antiviral activity in cell culture against HSV-1 (HSV-1): antiviral agent; antiviral activity in cell culture against HSV-2 (HSV-2): antiviral agent; treatment of herpes virus infections of mammals (herpes virus): able to treat herpes virus infections of mammals; treatment of HSV oral and genital lesions in humans (HSV [4]): particularly effective
14 | CC(C)(CO)[C@@H](O)C(=O)NCCC(=O)O [pantothenic acid] |  |  | effect of addition to lidocaine or lidocaine hydrochloride on their antiviral activity (HSV [3]): significantly enhances the antiviral activity
